Source: article PMC6155738, “Antiparasitic Activity of Sulfur- and Fluorine-Containing Bisphosphonates against Trypanosomatids and Apicomplexan Parasites” (Molecules : A Journal of Synthetic Chemistry and Natural …, 2017)

Target: T1, TgFPPS (Toxoplasma gondii, UniProt Q197X6)
T1 construct: gene FPPS; bifunctional enzyme making FPP and GGPP; enzyme assay as in Szajnman et al., 2008
T1 sequence (Q197X6 1-646): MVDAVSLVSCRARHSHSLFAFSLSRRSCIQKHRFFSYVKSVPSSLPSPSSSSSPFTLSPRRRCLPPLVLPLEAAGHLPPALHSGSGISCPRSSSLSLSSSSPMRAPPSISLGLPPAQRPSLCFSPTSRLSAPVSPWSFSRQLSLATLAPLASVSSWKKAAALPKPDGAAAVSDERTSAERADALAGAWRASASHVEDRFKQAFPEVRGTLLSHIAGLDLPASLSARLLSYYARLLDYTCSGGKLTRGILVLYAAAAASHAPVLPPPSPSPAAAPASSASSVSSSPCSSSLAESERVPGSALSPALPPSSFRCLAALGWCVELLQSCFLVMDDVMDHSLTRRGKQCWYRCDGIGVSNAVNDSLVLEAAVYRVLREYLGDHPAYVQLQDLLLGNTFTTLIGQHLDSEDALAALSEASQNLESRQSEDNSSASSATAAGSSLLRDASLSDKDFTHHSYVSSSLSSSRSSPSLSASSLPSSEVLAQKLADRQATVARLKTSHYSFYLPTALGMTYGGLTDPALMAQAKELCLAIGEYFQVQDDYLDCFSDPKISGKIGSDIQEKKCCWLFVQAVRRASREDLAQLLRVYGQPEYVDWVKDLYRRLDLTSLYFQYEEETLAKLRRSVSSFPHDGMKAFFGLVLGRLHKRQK
Experiment: FPPS enzymatic activity assay
Type: biochemical
Text: FPPS enzymatic activity assay on TgFPPS

Row | SMILES | IC50 [µM]
1 | C=C(C)CNCC(P(=O)(O)O)P(=O)(O)O [compound 19, 1-[(2-Methylall-1-ylamino)ethyl] 1,1-bisphosphonic Acid] | 0.183 ± 0.063
2 | CC(C)=CCC/C(C)=C/CSCC(P(=O)(O)O)P(=O)(O)O [compound 44, 1-[((E)-3,7-Dimethylocta-2,6-diene-1-thio)ethyl] 1,1-bisphosphonic Acid] | 0.313 ± 0.027
3 | CCCCNCC(F)(P(=O)(O)O)P(=O)(O)O [compound 55, 1-[(n-But-1-ylamino)ethyl]-1-fluoro-1,1-bisphosphonic Acid] | 0.091 ± 0.032
